Values quoted from earlier work in article PMC3853759 (International Journal of Pharmaceutical Investigation, 2013).

Key:
[1] = system: mice
[2] = system: rats

[Zn] [Zn, Zinc]
oral Zn dose producing acute toxicity [1]: 86 to 605 mg/kg
oral Zn dose producing acute toxicity [2]: 237 to 623 mg/kg
